Measurements: patent publication US20170152245A1 (National Taiwan University, priority 2015, published 2017)
Like-named read-outs stand apart in the source and are kept apart here.

Experiments:
[1] = test system: rats; assay: Gastric damage in rats; type: in vivo; conditions: 40 μg g^−1 oral, 3 h
Procedure: Rats (Wistar) were fasted overnight then given aspirin at dose of 150 mg/kg or nstpbp5185 at 40 mg/kg. Both drugs were suspended in 1% carboxymethylcellulose. Three hours later, the rats were sacrificed, the stomach excised, and the extent of hemorrhagic erosions scored by an observer unaware of treatment the rats received. Each lesion larger than 2 mm was counted for comparison. The stomach was fixed in formalin (pH, 7.4) and photographed.

[2] = test system: platelet suspension; assay: U46619-stimulated platelet protein tyrosine phosphorylation; type: cell-based; conditions: 2.5 μM; U46619 1 μM
Procedure: FIG. 19 Effects of nstpbp5185 on U46619-stimulated protein tyrosine phosphorylation in platelet suspension. Platelets were incubated with nstpbp5185 (2.5 μM) or solvent control for 3 min and then stimulated with U46619 (1 μM) for the times indicated (second, s). Then platelets were lysed in SDS buffer and the lysates separated by SDS-PAGE (7.5%-15% acrylamide gradient) under reducing conditions. After electrophoresis, the proteins were transferred to PVDF membranes, and were incubated with several antiphosphotyrosine mAb before detection by using a peroxidase-linked second Ab and detected by chemiluminescence. Data are representative of three separate experiments.
Given the thromboxane receptor-blocking effect of nstpbp5185, the effect of nstpbp5185 on U46619-stimulated signal transduction in platelets was investigated. Stimulation of thromboxane receptors results in phosphorylation of PLCβ2 and activates downstream signaling pathway PKCα, PI3K, Syk, extracellular signal-regulated kinase (ERK) and focal adhesion kinase. The effect of nstpbp5185 on levels of protein tyrosine phosphorylation was examined in platelet cell lysates in different time course. […] In the presence of nstpbp5185 (2.5 μM), the overall pattern of protein tyrosine phosphorylation of signaling molecules during platelet activation was suppressed, including phospholipase Cβ2 (PLCβ2), FAK, PKCα, PI3-kinase, Syk and ERK.

[3] = target: T1, TP receptor (Homo sapiens, UniProt P21731); assay: [3H]SQ-29548 binding to TP receptor of recombinant HEK-293 cells
T1 construct: expressed in transfected cells; host or cells: HEK-293
T1 sequence (P21731 1-343): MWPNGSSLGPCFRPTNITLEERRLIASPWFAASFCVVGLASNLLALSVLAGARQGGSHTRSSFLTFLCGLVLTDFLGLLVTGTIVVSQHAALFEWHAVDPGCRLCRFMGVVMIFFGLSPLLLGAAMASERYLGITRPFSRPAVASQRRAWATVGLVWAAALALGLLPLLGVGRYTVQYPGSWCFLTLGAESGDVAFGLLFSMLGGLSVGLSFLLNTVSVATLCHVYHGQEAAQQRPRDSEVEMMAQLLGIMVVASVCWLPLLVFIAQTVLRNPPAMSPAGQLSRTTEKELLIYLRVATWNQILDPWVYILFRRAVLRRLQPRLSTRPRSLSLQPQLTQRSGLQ
Procedure: Freshly prepared samples of this suspension were incubated with [^3H]SQ-29548 (5 nM final concentration), for 60 min at 25° C. The displacement was initiated by addition of nstpbp5185 dissolved in the same buffer. After incubation (30 min, 25° C.), ice-cold Tris-HCl buffer (10 mM, pH 7.4) was added, the sample was rapidly filtered through a glass fiber filter, and the tube rinsed twice with ice-cold buffer. The filters were then placed in plastic scintillation vials containing an emulsion-type scintillation mixture, and the radioactivity was counted.

[4] = test system: mice; assay: OVA-induced asthmatic mice (sensitization and airway challenge); type: in vivo
Procedure: Mice were divided into groups receiving the following treatments: (1) sham sensitization plus challenge with phosphate buffered saline (PBS) (n=5), (2) sensitization plus challenge with OVA (Sigma A5503; Sigma, St. Louis, Mo.) (n=10), and (3 and 4) sensitization with OVA (i.p.) plus challenge with and nstpbp5185 (10 or 20 mg/kg) (n=6-7). […] Mice were challenged through the airway with 100 μg OVA in 40 μL PBS buffer via intranasal administration (i.n.) days 36, 37 and 38 and AHR induced by methacholine (MCh) were measured at day 39. Animals were sacrificed 24 h after the AHR measurement. The mice were placed in the main chamber of a whole body plethysmograph (Buxco Electronics, Inc., Sharon, Conn., USA) and challenged with aerosolized 0.9% normal saline accompanied by increasing doses of methacholine (6.25-50 mg/ml). Each nebulization lasted for 3 min, and after each nebulization, recordings were taken and averaged for the 3 min. The Penh values were determined, and the data were expressed as Penh values.
Serum were collected and stored at −70° C. after centrifugation (3000 rpm, 10 min). The amount of OVA-specific IgE was determined by ELISA. Briefly, 96-well plates were coated with OVA at 10 μg/well. After the plates were blocked, 100 μl/well of diluted sera was added, and the plates were incubated at room temperature for 2 h or at 4° C. overnight. After incubation, the plates were washed five times with PBS with Tween 20 buffer, the secondary antibody (biotinylated rat anti-mouse IgE; AbD Serotec, Kidlington, UK) was added and plates were incubated for 1 h at room temperature. […] The avidin-horseradish peroxidase was removed by washing with PBS with Tween 20 buffer, and the bound enzyme substrate was detected by adding tetramethylbenzidine reagent (KPL, Gaithersburg, Md., USA). […] Optical density was measured at 450 nm (550 nm was used as a reference filter) in a microplate autoreader (Anthos Reader 2010; Anthos Labtec Instruments GmbH, Salzburg, Austria).

Cc1ccc(-c2nc3ccccc3n2Cc2ccccc2)o1 [Example 6, 1-Benzyl-2-(5-methyl-2-furyl)benzimidazole]
gastric lesions (>2 mm) [1]: did not cause significant lesion
protein tyrosine phosphorylation of signaling molecules (PLCβ2, FAK, PKCα, PI3-kinase, Syk, ERK) [2]: suppressed
Thromboxane receptor ([3]; Table III arrows): ↓
IC50 ([3]; [3H]SQ-29548 5 nM, read-out: IC50 in displacing 3H-SQ-29548 from TP receptor expressed on HEK-293 cells): ~100 nM
IC50 ([3]; read-out: thromboxane A2 receptor blockade IC50): 100 nM
cellular infiltration of the airways ([4]; 10 and 20 mg/kg/day): reduced
OVA-specific IgE, IgG2a and IgG1 levels in serum ([4]; 10 or 20 mg/kg): significant reduction
asthma symptoms after OVA challenge ([4]; Group 3 and Group 4 (10 or 20 mg/kg)): alleviated symptoms
